Patent US7820839B2, “Taxoid-fatty acid conjugates and pharmaceutical compositions thereof” (The Research Foundation of State University of New York, priority 2003, dated 2010)
Where two headings read alike, the source gives them in different places.

Key:
[1] = test system: pgp+ human colon tumor xenograft, DLD-1; conditions: for Days to 600 mm^3 Median / Growth Delay / Toxicity: number of animals who either died or lost greater than 20% body weight: SCID mice; for Days to 600 mm^3 Median / Growth Delay / Toxicity: number of animals who either died or lost greater than 20% body weight / Tumor free mice/Group: DLD-1; for Tumor free mice/Group: tumors less than 600 mm^3 on day 201
Protocol: (§1) Female severe combined immune deficient, (SCID) mice aged six to eight weeks were obtained from either the in-house breeding facility at Roswell Park Cancer Institute or Taconic (Germantown, N.Y.). All aspects of animal care complied with the Institutional Animal Care and Use Committee guidelines. […] Tumors were initiated by implantation of approximately 50 mg of non-necrotic tumor fragments on the right flank using a 12-guage trocar needle. Chemotherapy was started when the tumor was established as a palpable mass, (approximately 50-100 mm^3 size). Therapy consisted of i.v. injections through the tail vein, given four times, three days apart. Each drug treatment group or drug free vehicle consisted of 4-5 mice per group, untreated controls contained 10 mice per group.
(§2) These were used for comparison purposes. DHA-taxoids and other omega-3 fatty acid-taxoids were prepared as a 30 mg/mL stock solution in equal parts of Tween 80 (polyoxyethylene-sorbitan monooleate; purchased from Sigma Chemical Company) and absolute ethanol. To stablize the formulation of the DHA-taxoids and other omega-3 fatty acid-taxoids, antioxidants, L-ascorbic acid (3.9 mM) and α-tocopherol (2.0 mM), were added. Each stock solution was further diluted before use in 0.9% NaCl (saline) so that the appropriate concentration of each drug could be injected i.v. via the tail vein, in a volume of approximately 0.4 mL for a 20 g mouse. Each drug was administered once a day on […].
(§3) For each animal, the tumor length (1) and width (w), each in mm, were measured using electronic calipers and recorded every 3-4 days. Tumor volume (v), in mm^3, was calculated using the formula: v=0.4(l×w^2). The time in days to the pre-determined target tumor volume of 600 mm^3 was linearly interpolated from a plot of log(volume) versus time. Statistically significant differences in tumor volumes between control and drug-treated mice were determined by the Cox-Mantel test. […] All statistical tests were two-sided.

[2] = test system: human ovarian tumor xenograft (pgp−) A121; assay: In vivo tumor growth assay, A121 xenograft in SCID mice; conditions: for Tumor free mice/Group: no palpable tumor on day 197; for Tumor free mice/Group / Days to 600 mm^3 Median / Growth Delay / Toxicity: number of animals who either died or lost greater than 20% body weight: A121; for Days to 600 mm^3 Median / Growth Delay / Toxicity: number of animals who either died or lost greater than 20% body weight: SCID mice; for antitumor effect (in words): human ovarian tumor xenograft (pgp−) A121, SCID mice
Protocol: as §1, §2, §3

[3] = test system: Madison 109 subcutaneous lung tumor; conditions: cited from earlier work
[4] = cited from earlier work
[5] = test system: human breast cancer cell line MCF7-MDR; conditions: drug-resistant, MDR phenotype; cited from earlier work
[6] = total dose 75 mg/kg (25 mg/kg/inj) i.v. day 5, 8 and 11
[7] = total dose 75 mg/kg (25 mg/kg/inj) i.v.
[8] = total dose 150 mg/kg (50 mg/kg/inj) i.v. day 5, 8 and 11
[9] = total dose 150 mg/kg (50 mg/kg/inj) i.v.
[10] = total dose 240 mg/kg (80 mg/kg/inj) i.v. day 5, 8 and 11
[11] = total dose 240 mg/kg (80 mg/kg/inj) i.v.
[12] = total dose 90 mg/kg (30 mg/kg/inj) i.v.
[13] = total dose 60 mg/kg (20 mg/kg/inj) i.v.

CC/C=C\C/C=C\C/C=C\C/C=C\C/C=C\C/C=C/CCC(=O)O[C@@H](C(=O)O[C@H]1C[C@@]2(O)[C@@H](OC(=O)c3ccccc3)C3[C@]4(OC(C)=O)COC4C[C@H](O)[C@@]3(C)C(=O)[C@H](O)C(=C1C)C2(C)C)[C@@H](NC(=O)OC(C)(C)C)c1ccccc1 (some centres unmarked) [DHA-Docetaxel, reference compound]
Days to 600 mm^3 Median [1, 6]: 31 days
Growth Delay [1, 7]: 17 days
Toxicity: number of animals who either died or lost greater than 20% body weight [1, 7]: 0
Days to 600 mm^3 Median [1, 8]: 48 days
Growth Delay [1, 9]: 34 days
Toxicity: number of animals who either died or lost greater than 20% body weight [1, 9]: 0
Tumor free mice/Group [1, 7]: 0/4
Tumor free mice/Group [1, 9]: 0/4

CC/C=C\C/C=C\C/C=C\C/C=C\C/C=C\C/C=C\CCC(=O)O[C@@H](C(=O)O[C@@H]1C(C)=C2[C@@H](OC(C)=O)C(=O)[C@@]3(C)[C@H]([C@H](OC(=O)c4ccccc4)[C@@]4(OC(=O)O[C@@H]14)C2(C)C)[C@]1(OC(C)=O)CO[C@@H]1C[C@@H]3O)[C@H](CC(C)C)NC(=O)OC(C)(C)C [DHA-IDN-5109, 2′-Docosahexaenoyl-3′-dephenyl-3′-(2-methylpropyl)-10-acetyldocetaxel-1,14-carbonate]
Days to 600 mm^3 Median [1, 8]: 14 days
Growth Delay [1, 9]: 0 days
Toxicity: number of animals who either died or lost greater than 20% body weight [1, 9]: 0
Tumor free mice/Group [1, 9]: 0/5

CC/C=C\C/C=C\C/C=C\C/C=C\C/C=C\C/C=C/CCC(=O)O[C@@H](C(=O)O[C@H]1C[C@@]2(O)[C@@H](OC(=O)c3ccccc3)C3[C@](C)(C(=O)[C@H](OC(C)=O)C(=C1C)C2(C)C)[C@@H](O)C[C@H]1OC[C@@]31OC(C)=O)[C@@H](NC(=O)c1ccccc1)c1ccccc1 (some centres unmarked) [DHA-Paclitaxel, reference compound]
Days to 600 mm^3 Median [1, 10]: 18 days
Growth Delay [1, 11]: 4 days
Toxicity: number of animals who either died or lost greater than 20% body weight [1, 11]: 0
Tumor free mice/Group [1, 11]: 0/5
Tumor free mice/Group [2, 11]: 2/5
Days to 600 mm^3 Median [2, 11]: 197 days
Growth Delay [2, 11]: 186 days
Toxicity: number of animals who either died or lost greater than 20% body weight [2, 11]: 0
duration of sustained regression ([3]; optimum dose of 120 mg/kg, all mice): sixty
regression of lung tumor xenografts ([3]; optimum dose of 120 mg/kg, mice): complete regression
lower clearance rate than paclitaxel ([4]; mice): 94 fold
stability in plasma ([4]; plasma): stable in plasma

CC/C=C\C/C=C\C/C=C\C/C=C\C/C=C\C/C=C/CCC(=O)O[C@@H](C(=O)O[C@H]1C[C@@]2(O)[C@@H](OC(=O)c3ccccc3)C3[C@](C)(C(=O)[C@H](OC(=O)CC)C(=C1C)C2(C)C)[C@@H](O)C[C@H]1OC[C@@]31OC(C)=O)[C@H](CC(C)C)NC(=O)OC(C)(C)C (some centres unmarked) [DHA-SB-T-1103, 2′-Docosahexaenoyl-3′-dephenyl-3′-(2-methylpropyl)-10-propanoyldocetaxel]
Days to 600 mm^3 Median [1, 6]: 18 days
Growth Delay [1, 7]: 4 days
Tumor free mice/Group [1, 7]: 0/5

CC/C=C\C/C=C\C/C=C\C/C=C\C/C=C\C/C=C/CCC(=O)O[C@@H](C(=O)O[C@H]1C[C@@]2(O)[C@@H](OC(=O)c3ccccc3)C3[C@](C)(C(=O)[C@H](OC(=O)C4CC4)C(=C1C)C2(C)C)[C@@H](O)C[C@H]1OC[C@@]31OC(C)=O)[C@H](CC(C)C)NC(=O)OC(C)(C)C (some centres unmarked) [DHA-SB-T-1104, 2′-Docosahexaenoyl-3′-dephenyl-3′-(2-methyl-1-propyl)-10-cyclopropanecarbonyldocetaxel]
Days to 600 mm^3 Median [1, 10]: 18 days
Growth Delay [1, 11]: 4 days
Toxicity: number of animals who either died or lost greater than 20% body weight [1, 11]: 0
Tumor free mice/Group [1, 11]: 0/5
antitumor effect (in words) [2]: effective tumor growth delay
Tumor free mice/Group [2, 11]: 0/5
Days to 600 mm^3 Median [2, 11]: 126 days
Growth Delay [2, 11]: 115 days
Toxicity: number of animals who either died or lost greater than 20% body weight [2, 11]: 0

CC/C=C\C/C=C\C/C=C\C/C=C\C/C=C\C/C=C/CCC(=O)O[C@@H](C(=O)O[C@H]1C[C@@]2(O)[C@@H](OC(=O)c3ccccc3)C3[C@](C)(C(=O)[C@H](OC(=O)CC)C(=C1C)C2(C)C)[C@@H](O)C[C@H]1OC[C@@]31OC(C)=O)[C@H](C=C(C)C)NC(=O)OC(C)(C)C (some centres unmarked) [DHA-SB-T-1213, 2′-Docosahexaenoyl-3′-dephenyl-3′-(2-methyl-1-propenyl)-10-propanoyldocetaxel]
Days to 600 mm^3 Median [1, 6]: 68 days
Growth Delay [1, 7]: 54 days
Tumor free mice/Group [1, 7]: 0/5
antitumor effect (in words) [2]: excellent results
Tumor free mice/Group [2, 12]: 4/5
Days to 600 mm^3 Median [2, 12]: >197 days
Growth Delay [2, 12]: >186 days

CC/C=C\C/C=C\C/C=C\C/C=C\C/C=C\C/C=C\CCC(=O)O[C@@H](C(=O)O[C@H]1C[C@@]2(O)[C@@H](OC(=O)c3ccccc3)[C@@H]3[C@]4(OC(C)=O)CO[C@@H]4C[C@H](O)[C@@]3(C)C(=O)[C@H](OC(=O)C3CC3)C(=C1C)C2(C)C)[C@H](C=C(C)C)NC(=O)OC(C)(C)C [DHA-SB-T-1214, 2′-Docosahexaenoyl-3′-dephenyl-3′-(2-methyl-1-propenyl)-10-cyclopropanecarbonyldocetaxel]
survival of mice ([1]; day 201, DLD-1, SCID mice): all mice were alive on day 201
tumor detected in treated mice ([1]; day 201, DLD-1, SCID mice): no trace of tumor was detected
antitumor effect (in words) ([1]; drug-resistant human colon tumor xenografts in SCID mice): remarkable antitumor effect
Days to 600 mm^3 Median [1, 10]: >201 days
Growth Delay [1, 11]: >187 days
Toxicity: number of animals who either died or lost greater than 20% body weight [1, 11]: 0
Tumor free mice/Group [1, 11]: 5/5

CC/C=C\C/C=C\C/C=C\C/C=C\C/C=C\C/C=C/CCC(=O)O[C@@H](C(=O)O[C@H]1C[C@@]2(O)[C@@H](OC(=O)c3ccccc3)C3[C@](C)(C(=O)[C@H](OC(=O)N(C)C)C(=C1C)C2(C)C)[C@@H](O)C[C@H]1OC[C@@]31OC(C)=O)[C@H](C=C(C)C)NC(=O)OC(C)(C)C (some centres unmarked) [DHA-SB-T-1216]
antitumor effect (in words) [2]: effective tumor growth delay
Tumor free mice/Group [2, 12]: 1/5
Days to 600 mm^3 Median [2, 12]: >197 days
Growth Delay [2, 12]: >186 days
Toxicity: number of animals who either died or lost greater than 20% body weight [2, 12]: 4

CC(=O)O[C@H]1C(=O)[C@@]2(C)[C@H]([C@H](OC(=O)c3ccccc3)[C@]3(O)C[C@H](OC(=O)[C@H](O)[C@@H](NC(=O)c4ccccc4)c4ccccc4)C(C)=C1C3(C)C)[C@]1(OC(C)=O)CO[C@@H]1C[C@@H]2O [Paclitaxel, reference compound]
Days to 600 mm^3 Median ([1]; total dose 60 mg/kg (20 mg/kg/inj) i.v. day 5, 8 and 11): 22 days
Growth Delay [1, 13]: 8 days
Toxicity: number of animals who either died or lost greater than 20% body weight [1, 13]: 0
Tumor free mice/Group [1, 13]: 0/3
Tumor free mice/Group [2, 13]: 0/5
Days to 600 mm^3 Median [2, 13]: 94 days
Growth Delay [2, 13]: 83 days
Toxicity: number of animals who either died or lost greater than 20% body weight [2, 13]: 0
regression of the tumors ([3]; optimum dose of 20 mg/kg, mice): neither complete nor partial regression
IC50 [5]: 300 to 800 nM
